Experiments:
[1] = target: T1, β-D-galactosidase (bovine liver) (Bos taurus, UniProt F1MNT6); test: Glycosidase inhibition (Table 2 panel); assay type: biochemical; conditions: at 100 μM
T1 sequence (F1MNT6 1-469): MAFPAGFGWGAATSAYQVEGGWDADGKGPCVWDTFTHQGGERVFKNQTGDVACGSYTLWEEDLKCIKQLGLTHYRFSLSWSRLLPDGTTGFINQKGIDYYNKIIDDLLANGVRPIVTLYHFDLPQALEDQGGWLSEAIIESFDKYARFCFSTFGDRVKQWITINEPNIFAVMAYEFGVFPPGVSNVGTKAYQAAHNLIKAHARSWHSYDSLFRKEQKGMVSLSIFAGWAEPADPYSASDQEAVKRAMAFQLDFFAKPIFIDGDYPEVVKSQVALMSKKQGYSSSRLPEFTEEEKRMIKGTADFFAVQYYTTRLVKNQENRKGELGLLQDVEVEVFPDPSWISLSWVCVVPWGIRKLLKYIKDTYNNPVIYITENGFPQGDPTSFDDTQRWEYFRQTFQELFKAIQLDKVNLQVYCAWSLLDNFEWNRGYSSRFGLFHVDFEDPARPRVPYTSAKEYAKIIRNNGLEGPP
Excerpt: (§1) The enzymes α-D-glucosidase (yeast), β-D-glucosidases (almond, bovine liver), α-D-galactosidase (coffee beans), β-D-galactosidase (bovine liver), α-D-mannosidase (Jack bean), β-D-mannosidase (snail), α-L-rhamnosidase (P. decumbens), α-L-fucosidase (bovine kidney), trehalase (porcine kidney), β-D-glucuronidases (E. coli, bovine liver), amyloglucosidase (A. niger), para-nitrophenyl glycosides, and various disaccharides were purchased from Sigma-Aldrich Co (St. Louis, MO, USA).
(§2) Brush border membranes were prepared from the rat small intestine according to the method of Kessler et al., and were assayed at pH 6.8 for rat intestinal maltase using maltose. For rat intestinal maltase, porcine kidney trehalase, and A. niger amyloglucosidase activities, the reaction mixture contained maltose ([…]) and the appropriate amount of enzyme, and the incubations were performed for 10–30 min at 37 °C. The reaction was stopped by heating at 100 °C for 3 min. After centrifugation (600 g; 10 min), the resulting reaction mixture was added to the Glucose CII-test Wako (Wako Pure Chemical Ind., Osaka, Japan). The absorbance at 505 nm was measured to determine the amount of the released D-glucose. Other glycosidase activities were determined using an appropriate para-nitrophenyl glycoside as substrate at the optimum pH of each enzyme. The reaction mixture contained the substrate ([…]) and the appropriate amount of enzyme. The reaction was stopped by the addition of Na2CO3 ([…]). The released para-nitrophenol was measured spectrometrically at 400 nm. All reactions were run in […].

[2] = tested on: β-D-mannosidase (snail); test: Glycosidase inhibition (Table 2 panel); assay type: biochemical; conditions: at 100 μM
Excerpt: as §1, §2

[3] = target: T2, β-D-glucosidase (bovine liver) (Bos taurus, UniProt F1MNT6); test: Glycosidase inhibition (Table 2 panel); assay type: biochemical; conditions: at 100 μM
T2 sequence (F1MNT6 1-469): T1 sequence (F1MNT6 1-469)
Excerpt: as §1, §2

[4] = tested on: β-D-glucosidase (almond); test: Glycosidase inhibition (Table 2 panel); assay type: biochemical; conditions: at 100 μM
Excerpt: as §1, §2

[5] = tested on: α-L-rhamnosidase (P. decumbens); test: Glycosidase inhibition (Table 2 panel); assay type: biochemical; conditions: at 100 μM
Excerpt: as §1, §2

[6] = tested on: T3, α-D-galactosidase (coffee beans); test: Glycosidase inhibition (Table 2 panel); assay type: biochemical; conditions: at 100 μM
T3 construct: purchased Sigma-Aldrich; host or cells: coffee beans
Excerpt: as §1, §2

[7] = tested on: T4, α-L-fucosidase (bovine kidney); test: Glycosidase inhibition (Table 2 panel); assay type: biochemical; conditions: at 100 μM
T4 construct: purchased Sigma-Aldrich; host or cells: bovine kidney
Excerpt: as §1, §2

[8] = tested on: T5, α-D-mannosidase (Jack bean); test: Glycosidase inhibition (Table 2 panel); assay type: biochemical; conditions: at 100 μM
T5 construct: purchased Sigma-Aldrich; host or cells: Jack bean
Excerpt: as §1, §2

[9] = tested on: T6, trehalase (porcine kidney); test: Glycosidase inhibition (Table 2 panel); assay type: biochemical; conditions: at 100 μM
T6 construct: purchased Sigma-Aldrich; host or cells: porcine kidney
Excerpt: as §1, §2

[10] = tested on: β-D-glucuronidase (bovine liver); test: Glycosidase inhibition (Table 2 panel); assay type: biochemical; conditions: at 100 μM
Excerpt: as §1, §2

[11] = tested on: α-D-glucosidase (rat intestinal maltase); test: Glycosidase inhibition (Table 2 panel); assay type: biochemical; conditions: at 100 μM
Excerpt: as §1, §2

[12] = tested on: MCF10A (non-tumour derived normal breast cell line); test: Cancer screening, MTT growth inhibition; assay type: cell-based; conditions: 25 µM of drug, 72 h
[13] = tested on: α-D-glucosidase (Bacillus); test: Glycosidase inhibition (Table 3 panel); assay type: biochemical; conditions: 1 mg/mL aqueous solution; run in water
How it was run: (§3)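 Enzymes tested at 27 °C in citric acid/disodium hydrogen phosphate buffer at each enzyme's optimum pH, with 1 mg/mL aqueous extract and […] para-nitrophenyl substrate. Reactions stopped with 0.4 M glycine (pH 10.4) within the exponential phase; absorbance read at 405 nm, triplicate means.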

[14] = tested on: N-acetyl-β-D-glucosaminidase (bovine kidney); test: Glycosidase inhibition (Table 3 panel); assay type: biochemical; conditions: 1 mg/mL aqueous solution; run in water
How it was run: as §3

[15] = tested on: T5, α-D-mannosidase (Jack bean); test: Glycosidase inhibition (Table 3 panel); assay type: biochemical; conditions: 1 mg/mL aqueous solution; run in water
How it was run: as §3

[16] = tested on: several glycosidases; test: Glycosidase inhibition, whole Table 3 panel; assay type: biochemical; conditions: Table 3 assay conditions
Description: All enzymes and para-nitrophenyl substrates were purchased from Sigma. Enzymes were assayed at 27 °C in citric acid (0.1 M)/disodium hydrogen phosphate (0.2 M) buffers at the optimum pH for the enzyme. The incubation mixture consisted of […] of 1 mg/mL aqueous solution of extract and […] of the appropriate […] para-nitrophenyl substrate made up in buffer at the optimum pH for the enzyme. The reactions were stopped by addition of […] 0.4 M glycine (pH 10.4) during the exponential phase of the reaction, which had been determined at the beginning using uninhibited assays in which water replaced the inhibitor. Final absorbances were read at 405 nm using a Versamax microplate reader (Molecular Devices, Wokingham, UK). Assays were carried out in triplicate, and the values given are means of the three replicates per assay. All reactions were run in water.

[17] = target: α-D-glucosidase (rice) (Oryza sativa subsp. japonica, UniProt Q653V7); test: Glycosidase inhibition (Table 2 panel); assay type: biochemical; conditions: at 100 μM
Excerpt: as §1, §2

Sequence of α-D-glucosidase (rice) (Q653V7 34-885): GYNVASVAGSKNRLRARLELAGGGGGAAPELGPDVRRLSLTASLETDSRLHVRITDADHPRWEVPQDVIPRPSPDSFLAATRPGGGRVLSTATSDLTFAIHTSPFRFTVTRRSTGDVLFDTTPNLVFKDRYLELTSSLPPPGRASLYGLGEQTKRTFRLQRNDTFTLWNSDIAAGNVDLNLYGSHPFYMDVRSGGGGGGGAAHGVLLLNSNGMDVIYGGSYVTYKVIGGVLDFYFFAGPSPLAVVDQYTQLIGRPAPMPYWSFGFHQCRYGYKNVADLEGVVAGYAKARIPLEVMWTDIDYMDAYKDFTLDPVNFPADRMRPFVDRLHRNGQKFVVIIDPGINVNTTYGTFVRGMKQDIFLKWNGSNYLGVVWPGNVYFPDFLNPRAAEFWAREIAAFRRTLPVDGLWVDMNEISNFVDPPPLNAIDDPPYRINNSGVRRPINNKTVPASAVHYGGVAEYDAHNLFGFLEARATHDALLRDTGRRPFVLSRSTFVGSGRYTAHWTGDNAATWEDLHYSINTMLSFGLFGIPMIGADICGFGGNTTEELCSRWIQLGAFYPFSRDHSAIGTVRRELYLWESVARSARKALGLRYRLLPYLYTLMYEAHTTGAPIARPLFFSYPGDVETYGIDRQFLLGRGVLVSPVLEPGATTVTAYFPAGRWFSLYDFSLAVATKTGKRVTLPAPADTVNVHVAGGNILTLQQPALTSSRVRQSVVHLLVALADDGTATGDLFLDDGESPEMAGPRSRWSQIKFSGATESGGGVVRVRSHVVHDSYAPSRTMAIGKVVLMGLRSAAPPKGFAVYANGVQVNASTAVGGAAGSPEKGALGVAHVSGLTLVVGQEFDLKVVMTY

Structure (SMILES)	inhibition at 100 µM [1] [%]	inhibition % β-D-Mannosidase Snail [2]	inhibition at 100 µM [3] [%]	inhibition % β-D-Glucosidase Almond [4]	inhibition % α-L-Rhamnosidase P. decumbens [5]	inhibition % α-D-Galactosidase Coffee Beans [6]	inhibition % α-L-Fucosidase Bovine Kidney [7]	inhibition % α-D-Mannosidase Jack Bean [8]	inhibition % Trehalase Porcine Kidney [9]	inhibition % β-D-Glucuronidase Bovine Liver [10]	inhibition % α-D-Glucosidase Rat Intestinal Maltase [11]	inhibition at 25 µM ([12]; Homo sapiens, MCF-10A, read-out: DOSE SCREEN percentage (%) cell growth inhibition MCF10A Breast (normal)) [%]	Percentage inhibition α-D-Glucosidase Bacillus [13] [%]	Percentage inhibition N-Acetyl-β-D-glucosaminidase Bovine Kidney [14] [%]	Percentage inhibition α-D-Mannosidase Jack Bean [15] [%]	Inhibition over the glycosidases of Table 3 [16] [%]	inhibition % α-D-Glucosidase Rice [17]	inhibition % β-D-Galactosidase Bovine Liver [1]	inhibition % β-D-Glucosidase Bovine Liver [3]	DOSE SCREEN percentage (%) cell growth inhibition MCF10A Breast (normal) [12]
N[C@@H](Cc1ccc(B(O)O)cc1)C(=O)O [BPA, 4-borono-L-phenylalanine, reference compound]	10.9	^cNI ^d(2.1%)	0	^cNI ^d(0%)	^cNI ^d(0%)	^cNI ^d(4.3%)	^cNI ^d(0%)	^cNI ^d(1.1%)	^cNI ^d(0%)	^cNI ^d(7.4%)	^cNI ^d(0%)	4	19.9	6.7	0.6	< 30				
N[C@@H](Cc1ccc(B(O)O)cc1)C(=O)O [^10B-BPA, reference compound]		^cNI ^d(0.3%)		^cNI ^d(0%)	^cNI ^d(0%)	^cNI ^d(1.2%)	^cNI ^d(0%)	^cNI ^d(0%)	^cNI ^d(0%)	^cNI ^d(0%)	^cNI ^d(0%)		19.5	6.3	−0.7	< 30	^cNI ^d(0%)	^cNI ^d(0%)	^cNI ^d(14.2%)	* <0%

From paper PMC12655172, “Borylated 5-Membered Ring Iminosugars: Synthesis and Biological Evaluation for Glycosidase Inhibition and Anticancer Properties for Application in Boron Neutron Capture Therapy (BNCT)—Part 2” (Pharmaceuticals, 2025)
